Holding throughout (type): cell-based, human
Assay [1] has as its system LX2 cells. The experiment in a line: Live cell wound healing assay in LX2 cells. The following applies: 1 μM; TGFb 6.5 ng/ml; wound closure density at 50 hour. How it is done: (§1) LX2 cells were obtained from Sigma Aldrich (Cat #SCC064). LX2 cells were grown at 37° C. under 5% CO2, 95% ambient atmosphere and maintained in Dulbecco's […] (DMEM) supplemented with 10% FBS (Sigma) and 1% Penn Strep.
FIG. 10A: LX2 cells were plated on 96-well plates (Essen Image Lock, Essen Instruments). […] Wound closure was monitored with Incucyte Live-Cell Imaging System and software (Essen Instruments) every 2-4 hours for 72 hours. The mean relative wound density of at least three biological replicates was calculated. The wound density correlates with the cell motility. Plotted is the wound closure density at 50 hour.

For assay [2], the system named is LX2 cells. The experiment in a line: qPCR of TGF-β-induced gene expression in LX2 cells. Conditions: galunisertib. How it is done:
as §1
FIGS. 10B and 10C: LX2 cells were incubated with TGF-β alone at 6.5 ng/ml or TGF-β with indicated drugs for 48 hours. Total cellular RNA was isolated using a RNeasy Mini Kit (QIAGEN). 1 μg of total RNA was reverse transcribed into first-strand cDNA using an RT2 First Strand Kit (QIAGEN). The resultant cDNA was subjected to qPCR using indicated human primers to measure the changes in mRNA expression of indicated human genes.

Assay [3] deals with IPF-LL29 and IPF-LL97A cells. The experiment in a line: qPCR of TGF-β-induced gene expression in IPF-LL29 and IPF-LL97A cells. The following applies: nintedanib at a same equivalent dose, pirfenidone at a much higher dose; FIGS. 2A, 2B, 3A, 3B. The method, then:
IPF-LL29, IPF-LL97A, and human lung fibroblast LL47 cell lines were purchased from ATCC. Mouse lung fibroblasts were isolated from the lungs of male C57BL/6J mice. Cells were grown at 37° C. under 5% CO2, 95% ambient atmosphere and maintained in Dulbecco's […] (DMEM) supplemented with 10% FBS (Sigma) and 1% Penn Strep.
FIGS. 2A and 2B. IPF-29 (FIG. 2A) or IPF-97A (FIG. 2B) cells were incubated with TGF-β alone at 5 ng/ml or TGF-β with indicated drugs for 48 hours and 5 days. Total cellular RNA was isolated using a RNeasy Mini Kit (QIAGEN). 1 μg of total RNA was reverse transcribed into first-strand cDNA using an RT2 First Strand Kit (QIAGEN). The resultant cDNA was subjected to qPCR using indicated human primers to measure the changes in mRNA expression of indicated human genes.
Background: In qPCR the cycle at which signal appears reflects the starting amount.

Regarding `Cc1cccc(-c2nn3c(c2-c2ccnc4ccc(C(N)=O)cc24)CCC3)n1` [galunisertib, reference compound], the “TGF-β-induced motility of LX2 cells” value in the assay on LX2 cells [1] is “did not affect LX2 cell motility”. Further, in the assay with LX2 cells [2], the “effect on TGF-β-induced expression of COL1A1 and αSMA” value is “modest effect”.
For the compound `COC(=O)c1ccc2c(c1)NC(=O)/C2=C(\Nc1ccc(N(C)C(=O)CN2CCN(C)CC2)cc1)c1ccccc1` [nintedanib, reference compound], in assay [3], the “TGF-β induced expression of myofibroblast activation marker genes or proliferation stimuli” value was “did not effectively block”.
Still for that read-out and setting: with `Cc1ccc(=O)n(-c2ccccc2)c1` [pirfenidone, reference compound] the entry was “did not effectively block”.
